Data from paper PMC6138628, “Enhanced uptake of gH625 by blood brain barrier compared to liver in vivo: characterization of the mechanism by an in vitro model and implications for delivery” (Scientific Reports, 2018).
Read-outs that look alike come from different tables or passages of the source. Residues, ends and D or L forms follow the SMILES beside them.

Legend:
[1] = 0.1 mM lipid, 37 °C, 100% = Triton X-100, repeated at least three times
Description: Large unilamellar vesicles (LUVs) and small unilamellar vesicles (SUVs) consisting of PI/DOPE/DPPC/PS/Chol/SM (4/23/30/8/20/15 ratio in moles)[33],[34], DSPC/POPE/PI/PS/lysoPC/SM/DOPG (37/21/7/9/3/18/5 ratio in moles)[35], and when required containing Rho-PE and NBD-PE, were formulated in 5 mM HEPES, 100 mM NaCl, pH 7.4. LUVs were prepared using the extrusion method as previously reported; lipids were first dissolved in chloroform, then dried under a nitrogen gas stream and lyophilized overnight. For fluorescence experiments, buffer was added to dry lipid films and vortexed for 1 h; then the lipid suspension was freeze-thawed 6 times and extruded 20 times through polycarbonate membranes with 0.1 μm diameter pores to obtain LUVs. For circular dichroism measurements, peptide samples in SUVs were prepared using the following protocol. Lipids were dissolved in chloroform and added to an equal volume of peptide solution dissolved in TFE containing appropriate peptide concentration. The samples were vortexed and lyophilized overnight. The dry samples were rehydrated with phosphate buffer (5 mM) for 1 h and sonicated for 30 min.
Membrane lipid mixing was followed by the resonance energy transfer assay (FRET)[39].

[2] = ANTS/DPX leakage assay; settings: 0.1 mM lipid, 5 mM Hepes, 100 mM NaCl, pH 7.4, 37 °C, data not shown
Description: The ANTS/DPX experiment was used to evaluate leakage of encapsulated dyes induced by the peptide. The peptide in 5 mM Hepes and 100 mM NaCl at pH 7.4 was added to the stirred vesicle suspension (0.1 mM lipid) containing ANTS and DPX at 37 °C. Details of this assay have been previously reported.

[3] = Tryptophan quenching by acrylamide in buffer; type: physicochemical; settings: no LUVs, peptide 4 µM, acrylamide up to 0.2 M, λex 295 nm, λem 340 nm
Description: A solution containing 4 µM of gH625 in the absence or presence of LUVs at a peptide/lipid molar ratio of 1/200, was titrated with the water-soluble quencher acrylamide (4 M mother solution). The maximal concentration of acrylamide in the samples is 0.2 M. Fluorescence was measured with λex 295 nm and λem 340 nm[43]. The data were analysed with the Stern-Volmer equation[43], F0/F = 1 + Ksv [Q], where F0 and F represent the fluorescence intensities in the absence and the presence of the quencher (Q), respectively. The Ksv is the Stern-Volmer quenching constant, and is correlated to the accessibility of the tryptophan residue to acrylamide. […] Ksv is thus determined by the amount of non-lipid-associated free peptide as well as the peptide fraction located on the surface of the bilayer.
The observed changes in the tryptophan emission upon binding to lipid vesicles indicate gH625 insertion into the hydrophobic region of the bilayers. We determined the accessibility of the tryptophan residues of membrane bound peptides towards acrylamide, a neutral, water-soluble quencher, which is unable to penetrate into the hydrophobic core of the lipid bilayer. In fact, tryptophan residues more deeply buried inside the membrane are less strongly quenched.

[4] = Circular dichroism spectroscopy; type: physicochemical; settings: CD, peptide 8 µM, P/L 0.08; for Helix content: [θ]222, according to Chakrabartty et al., lipid 100 µM, 5 mM phosphate buffer, room temperature
Description: The samples were vortexed and lyophilized overnight.
CD spectra were recorded at room temperature on a Jasco J-715 spectropolarimeter in a 0.1 cm quartz cell. The spectra are an average of 3 consecutive scans from 260 to 190 nm, recorded with a band width of 3 nm, a time constant of 16 s, and a scan rate of 10 nm/min. Spectra were recorded and corrected for the blank. Mean residue ellipticities (MRE) were calculated as MRE = Obsd/lcn (Obsd is the ellipticity measured in millidegrees, l is the path length of the cell in cm, c is the peptide concentration in mol/l, and n is the number of amino acid residues in the peptide). A solution of 8 µM of peptide with SUVs, was prepared as previously described. […] The percentage of helix was calculated from measurements of their mean residue ellipticity at 222 nm[44]. We used [ϑ]222 values of 0 and −40.000(1–2.5/n) deg cm^2 dmol^−1 per amino acid residue for 0% and 100% helicity; n is the number of amino acid residues. The ratio of the ellipticities at 222 and 208 nm were used to discriminate between monomeric and oligomeric states of helices. The experiment was performed before and after centrifugation to remove eventual precipitated peptides from solution.

[5] = parameters: method as in PMID 25792823; settings: after 3.5 h of incubation in serum; cited from earlier work

CC[C@H](C)[C@H](NC(=O)[C@H](CC(C)C)NC(=O)[C@H](C)NC(=O)[C@H](CC(N)=O)NC(=O)[C@H](Cc1ccc(O)cc1)NC(=O)[C@H](Cc1c[nH]cn1)NC(=O)[C@H](C)NC(=O)[C@H](Cc1c[nH]c2ccccc12)NC(=O)[C@H](CCCNC(=N)N)NC(=O)[C@@H](NC(=O)[C@H](CC(C)C)NC(=O)[C@@H](NC(=O)[C@H](CO)NC(=O)[C@H](C)NC(=O)[C@H](CC(C)C)NC(=O)CNC(=O)[C@@H](N)Cc1c[nH]cn1)[C@@H](C)O)[C@@H](C)O)C(=O)N[C@@H](CCCNC(=N)N)C(=O)N[C@@H](C)C(=O)N[C@@H](Cc1ccccc1)C(N)=O [gH625] (H-HGLASTLTRWAHYNALIRAF-NH2)
Maximum peptide/lipid ratio (P/L), complete fusion of vesicles ([1]; LUVs DSPC/POPE/PI/PS/lysoPC/SM/DOPG (37/21/7/9/3/18/5)): 0.7 | Maximum peptide/lipid ratio (P/L), complete fusion of vesicles ([1]; LUVs PI/DOPE/DPPC/PS/Chol/SM (4/23/30/8/20/15)): 0.05 | Leakage of encapsulated dyes (ANTS/DPX) ([2]; BBB mimicking LUVs): did not present any leakage | Leakage of encapsulated dyes (ANTS/DPX) ([2]; liver mimicking LUVs): did not present any leakage | Stern-Volmer quenching constant (Ksv) [3]: 10.21 ± 0.15 M⁻¹ | Helix content ([4]; BBB mimicking SUVs): 58% | Helix content ([4]; liver mimicking SUVs): 40% | Ratio θ222/θ208 (monomeric < 0.8, oligomeric > 1.0) ([4]; BBB mimicking SUVs): approximately 0.68 | Ratio θ222/θ208 (monomeric < 0.8, oligomeric > 1.0) ([4]; liver mimicking SUVs): ~0.45 | Serum stability, intact peptide [5]: significant amount of intact peptide
